Converted amounts (≈) assume the structure as drawn. “And” between values parts separate entries of the source, which are not always exact repeats. Equal entries are not always repeated. Where two headings read alike, the source gives them in different places.
How the values were obtained:
Sitophilus zeamais [1] = experiment: whole plant or invertebrate; conditions: for EC90: read-out: Fumigant Toxicity LC90 (95% FL)
Method: (§1) The insects used in this study were Sitophilus zeamais Motschulsky (Coleoptera: Curculionidae), identified by the Instituto Colombiano Agropecuario (ICA) under report number R3823M0000425. […] The adult insects used in all the experiments were 6 to 10 days post-emergence.
The treated disks were affixed to the inner surface of the screw cap of 22 mL glass vials. […] All treatments were performed in two independent experiments, each with five replicates.
(§2) Mixtures predicted by the RSM were prepared based on mole fractions. […] Four replicates were performed for each treatment and control across two independent experimental runs.
Dose reduction indices (DRIs) were also calculated to estimate how much the dose of each compound in a synergistic combination could be reduced to achieve a 50% effect (Equation (4)). DRIs were interpreted as favorable when >1, neutral at 1, and unfavorable when <1. Values above the log DRI = 0 line indicate favorable dose reductions.(4) (IRD)i=CL50i(fax)i/(1−(fax)i)^1/mi/(D)i

AChE of S. zeamais = experiment: AChE activity assay (modified Ellman) with S. zeamais protein extract; assay type: biochemical, Sitophilus zeamais; parameters: key to AChE Effect Inhibitor Type: C: competitive inhibitor; NC: non-competitive inhibitor; conditions: for AChE Effect Inhibitor Type: Lineweaver–Burk; for AChE Effect IC50 ± SD / Ki: S. zeamais protein extract; for Ki: read-out: AChE Effect ki ± SD (inhibitory constant)
Method: The compounds and mixtures evaluated in the in vitro assays were prepared in the same buffer supplemented with 0.5% (v/v) Triton X-100 (Sigma-Aldrich®, Saint Louis, MO, USA).
The supernatant was filtered, and 20 mM benzamidine was added. The extracts were stored in 5 mL aliquots at −20 °C. Preliminary assays were performed to quantify the specific activity of AChE (0.02–1.00 U/mL), GST (0.1–0.8 U/mL), and CAT (0.1–25 U/mL), and to optimize assay conditions (enzyme dilution: 1/8 to 1% v/v; substrate concentrations: 2 × km or within assay linearity).
Then, 50 µL of DTNB and 50 µL of ATChI were added. […] Inhibition percentages were calculated using Equation (5).

[2] = test system: glutathione S-transferase (GST) activity in S. zeamais; experiment: GST activity assay (modified Habig) with S. zeamais protein extract; assay type: biochemical, Sitophilus zeamais; conditions: 120 mg/L
Method: Enzymatic assays were performed in the assay buffer, consisting of 0.1 M potassium phosphate buffer (pH 7.2). The compounds and mixtures evaluated in the in vitro assays were prepared in the same buffer supplemented with 0.5% (v/v) Triton X-100 (Sigma-Aldrich®, Saint Louis, MO, USA).
A modified version of the method described by Oviedo et al. was used. Adults of S. zeamais (8 g; ~3125 insects) were frozen in liquid nitrogen, homogenized in a 1:10 ratio with assay buffer, and centrifuged at 13,000× g for 60 min at 4 °C. The supernatant was filtered, and 20 mM benzamidine was added. The extracts were stored in 5 mL aliquots at −20 °C. Preliminary assays were performed to quantify the specific activity of AChE (0.02–1.00 U/mL), GST (0.1–0.8 U/mL), and CAT (0.1–25 U/mL), and to optimize assay conditions (enzyme dilution: 1/8 to 1% v/v; substrate concentrations: 2 × km or within assay linearity). Each experiment was performed independently three times, with three technical replicates per experiment.
A modified version of Habig’s method was used. The protein extract (50 µL; 0.59 U/mL) was incubated with 50 µL of the compound or mixture (120 mg/L), followed by 50 µL each of CDNB and reduced glutathione (GSH). Kinetic absorbance was measured at 340 nm for 8 min. Blanks (without substrate) and quercetin (positive control) were included. Inhibition (%) was calculated using Equation (5), and treatment differences were evaluated via parametric ANOVA (α = 0.05) in GraphPad Prism 8.0.2 [42, 43]. Each experiment was performed independently three times, with three technical replicates per experiment.(5) % Inhibition=1−Am−AB/AC ×100 where Am is the absorbance of the sample, AB is the absorbance of the blank, and AC is the absorbance of the negative control.

Sitophilus zeamais [3] = assay type: in vivo; conditions: for Contact Toxicity LD50i (LC-95%): mixtures and their components (Table 3)
Method: as §1
Groups of 10 insects, previously placed in Petri dishes, were immobilized by exposure to low temperatures (0 °C). An initial dose of 50.0 µg per adult was applied topically to the dorsal thorax of each insect using aliquots of 0.20 µL from 0.25 mg/µL solutions in n-hexane. […] All treatments were performed in two independent experiments, each with four replicates. Insect mortality was assessed after 24 h, and mortality percentages were calculated using Abbott’s correction formula (Equation (1)).
as §2
Dose reduction indices (DRIs) were also calculated to estimate how much the dose of each compound in a synergistic combination could be reduced to achieve a 50% effect (Equation (4)). DRIs were interpreted as favorable when >1, neutral at 1, and unfavorable when <1.

S. zeamais = conditions: cited from earlier work; for LC50 in vapor-phase assays without physical barriers: previous reports
[4] = parameters: method as in doi:10.1016/B978-0-12-819092-0.00021-2; conditions: oral; cited from earlier work
[5] = Sitophilus zeamais, 24 h, read-out: Fumigant Toxicity LC50i (LC-95%)
[6] = Sitophilus zeamais, in Homo sapiens, 24 h, read-out: Fumigant Toxicity LC50 (95% FL)
[7] = Sitophilus zeamais, in Homo sapiens, 24 h
[8] = Sitophilus zeamais, read-out: LC50 values, fumigant activity (Figure 3)

| Structure (SMILES) | LC50 (Sitophilus zeamais [1]; [5]) | LC50 (Sitophilus zeamais [1]; [6]) | EC90 (Sitophilus zeamais [1]; [7]) | AChE inhibition type (Lineweaver–Burk plots), in words (AChE of S. zeamais) | AChE Effect Inhibitor Type (AChE of S. zeamais) | AChE Effect IC50 ± SD (AChE of S. zeamais) | Ki (AChE of S. zeamais) | GST Inhibition λ340 (%) [2] | Contact Toxicity LD90 (95% FL) (Sitophilus zeamais [3]; topical, 24 h after exposure) | further results |
| --- | --- | --- | --- | --- | --- | --- | --- | --- | --- | --- |
| C=C(C)C1CC=C(C)CC1 (racemic) [Compound C16, DL-Limonene (1:1)] | 88.7 µg/mL | 88.7 µg/mL and 651 µM | 136 µg/mL and 999 µM | non-competitive inhibition | NC | 26.69 ± 2.90 µg/mL | 79.64 ± 0.55 µM | 7.4% | – | – |
| C=C(C)[C@H]1CC=C(C)C(=O)C1 [Compound C3, S-(+)-Carvone] | 2.87 µg/mL | 2.87 µg/mL and 19.1 µM | 5.31 µg/mL and 35.4 µM | competitive inhibition | C | 66.27 ± 4.35 µg/mL | 56.76 ± 0.18 µM | 23.0% | 23.236 (20.46–27.42) µg/Adult | LC50 (Sitophilus zeamais [1]; [8]): 2.87 µg/mL; Contact Toxicity LD50i (LC-95%) (Sitophilus zeamais [3]): 12.68 µg/Adult; Contact Toxicity LD50 (95% FL) (Sitophilus zeamais [3]; topical, 24 h after exposure): 12.68 (10.91–14.60) µg/Adult |
| CC1=CC[C@@](O)(C(C)C)CC1 [Compound C5, R-(−)-Terpinen-4-ol] | – | 4.03 µg/mL and 26.1 µM | 6.13 µg/mL and 39.8 µM | – | – | – | – | – | 24.82 (22.64–29.63) µg/Adult | Fumigant LC50 reported in 7-day exposure assays (S. zeamais; 7-day exposure): 4.79 µg/mL; LC50 (Sitophilus zeamais [1]; [8]): 4.03 µg/mL; Contact Toxicity LD50 (95% FL) (Sitophilus zeamais [3]; topical, 24 h after exposure): 19.64 (18.42–21.45) µg/Adult |
| C=C(C)[C@@H]1CC[C@@H](C)C[C@H]1O [Compound C7, 1R,2S,5R-Isopulegol] | 4.73 µg/mL | 4.73 µg/mL and 30.7 µM | 7.19 µg/mL and 46.6 µM | competitive inhibition | C | 18.15 ± 0.64 µg/mL | 282 ± 4.14 µM | 10.6% | 26.65 (25.07–28.90) µg/Adult | – |
| C=CCc1ccc(OC)cc1 [Compound C11, Estragole] | 30.5 µg/mL | 30.5 µg/mL and 206 µM | 57.5 µg/mL and 388 µM | competitive inhibition | C | 27.41 ± 1.64 µg/mL | 159 ± 6.34 µM | ~ 17.5% and 17.6% | – | Contact Toxicity LD90 (95% FL) (Sitophilus zeamais [3]; in vivo): 79.66 (68.62–99.73) µg/Adult |
| Cc1ccc(C(C)C)cc1 [Compound C12, p-Cymene] | – | 28.7 µg/mL and 214 µM | 47 µg/mL and 350 µM | – | – | – | – | – | – | LC50 in vapor-phase assays without physical barriers (S. zeamais): 23.3 mg/L (≈ 174 µM) |
| CC1=CC=C(C(C)C)CC1 [Compound C13, α-Terpinene] | – | 60.2 µg/mL and 442 µM | 96.2 µg/mL and 706 µM | – | – | – | – | – | – | LC50 in vapor-phase assays without physical barriers (S. zeamais): 56.2 mg/L (≈ 413 µM) |
| CC1=CC[C@H](C(C)C)C=C1 [Compound C14, R-(−)-α-Phellandrene] | – | – | – | – | – | – | – | – | – | LC50 in vapor-phase assays without physical barriers (S. zeamais): 72.7 mg/L (≈ 534 µM); Fumigant Toxicity LC50 (95% FL) (Sitophilus zeamais [1]; S. zeamais adults, 24 h after exposure): 88.87 (69.70–108.27) mg L^−1; LC50 (Sitophilus zeamais [1]; read-out: Fumigant Toxicity LC50 (95% FL), S. zeamais adults, 24 h after exposure): 652 µM |
| CC1=CC[C@H]2[C@@H](C1)C2(C)C [Compound C15, δ-3-Carene] | 80.3 µg/mL | 80.3 µg/mL and 590 µM | 136 µg/mL and 997 µM | non-competitive inhibition | NC | – | 2.85 ± 0.05 µM | 7.3% | – | – |
| C=C1CCC2(C(C)C)CC12 (stereo not shown) [Compound C18, Sabinene] | 68.7 µg/mL | 68.7 µg/mL and 504 µM | 102 µg/mL and 750 µM | – | – | – | – | 25.9% | – | LC50 (Sitophilus zeamais [1]; [8]): 68.6 µg/mL |
| CC1=CCC2CC1C2(C)C (stereo not drawn) [Compound C19, α-Pinene] | – | 110 µg/mL and 810 µM | 179 µg/mL and 1.31 mM | – | – | – | – | – | – | LC50 in vapor-phase assays without physical barriers (S. zeamais): 120 µL/L |
| CC1=CCC(C(C)C)=CC1 [Compound C21, γ-Terpinene] | 108 µg/mL | 108 µg/mL and 792 µM | 188 µg/mL and 1.38 mM | – | – | – | – | 25.9% | – | – |
| C=C(C)[C@@H]1CC[C@@H](C)CC1=O [Compound C23, 2S,5R-Isopulegone] | 2.37 µg/mL | 2.37 µg/mL and 15.6 µM | 3.88 µg/mL and 25.5 µM | – | – | – | – | 19.4% | 18.48 (16.56–21.64) µg/Adult | Contact Toxicity LD50i (LC-95%) (Sitophilus zeamais [3]): 11.14 µg/Adult |
| Cc1ccc(C(C)C)cc1O [Compound C25, Carvacrol] | – | – | – | – | – | – | – | 19.3% | 13.45 (12.19–15.38) µg/Adult | AChE inhibition (AChE of S. zeamais; 120 mg/L): 46.85%; oral LD50 [4]: 2462.23 mg/kg; Contact Toxicity LD50i (LC-95%) (Sitophilus zeamais [3]): 8.71 µg/Adult |
| COP(=O)(OC)OC=C(Cl)Cl [Dichlorvos, reference compound] | 2.17 µg/mL | 2.17 µg/mL and 9.84 µM | 4.57 µg/mL and 20.7 µM | – | – | 0.0096 ± 0.00208 µg/mL | – | – | – | Fumigant Toxicity LC50i (LC-95%) (Sitophilus zeamais [1]; mixtures and their components (Table 3)): 2.17 (1.53–3.81) mg/L |
